Results as given in US20250332096A1, “BEVERAGE FORMULATION AND METHOD OF PROMOTING CELLULAR HYDRATION BY ENHANCING INTRACELLULAR PERMEATION” (Eastpond Laboratories Limited, priority 2024, published 2025).

Tests used:
pH of test solutions = assay type: physicochemical; conditions: purified water
Method: (§1) 1:1 mol/mol stoichiometry complexes were prepared for the experiment. Nicotinic acid/alpha-CD complex was prepared by dissolving 11.22 g nicotinic acid and 98.63 g alpha-CD (89.66 g on dry basis) in 700 ml purified water. Nicotinamide/alpha-CD complex was prepared by dissolving 5.57 g nicotinamide and 49.3 g alpha-CD (44.4 g on dry basis) in 350 ml purified water and L-arginine/alpha-CD complex was prepared by dissolving 15.18 g L-arginine and 94.26 g alpha-CD (85.69 g on dry basis) in 700 ml purified water. Further, for all the three complexes, the liquid was frozen in dry ice bath and lyophilized. The dry lyophilizate was ground and sieved.
(§2) Clarity, pH, conductivity, density, viscosity, turbidity, surface tension and osmolality were determined in solutions prepared with purified water. […]

[1] = Density measurements of test solutions; assay type: physicochemical
Method: The current study further manifests the density measurements in a cyclodextrin concentration dependent manner.
Water samples used were bottled water and tap water; wherein the tap water comprises the following impurities and properties: Free active chlorine (0.18 mg/1), Chloride (24 mg/1), Iron (6 μg/1), Manganese (2 μg/1), Nitrate (9 mg/1), Nitrite (<0.03 mg/1), Ammonium (<0.04 mg/1), Hardness of water (122 mg/l CaO), Conductivity (442 μS/cm) and pH 8. Purified water was produced by removal of dissolved ions by Merck/Millipore Synergy® Water Purification System at Cyclolab. The water quality produced Type 1 water (18.2 MΩ·cm at 25° C. ultrapure water) from pretreated water.
as §1, §2
However, it may not be established exactly which ionic species (Mg2+, Ca2+, Na+) causes this perturbation.

[2] = Viscosity of test solutions; assay type: physicochemical; conditions: purified water, 2.00%
Method: as §1
Clarity, pH, conductivity, density, viscosity, turbidity, surface tension and osmolality were determined in solutions prepared with purified water.

[3] = Turbidity of test solutions; assay type: physicochemical; conditions: purified water (reference)
Method: as §1, §2

[4] = Surface tension of test solutions; assay type: physicochemical; conditions: purified water
Method: as §1, §2

[5] = Conductivity of test solutions; assay type: physicochemical; conditions: purified water
Method: as §1, §2

[6] = Visual inspection (clarity) of test solutions; assay type: physicochemical; conditions: purified water
Method: as §1, §2

C. elegans = C. elegans longevity in hydration modified water (Example 5); assay type: in vivo; conditions: for Animals alive, % of initial: 0.1% w/w in nutritive media, USA I water
Method: C. elegans nematodes were grown in petri-type dishes containing normal nutrient liquid media prepared alternatively with USA I water (described in Example 2) lacking any further additive component (control) or the same water supplemented with a parent α-, β-, or γ-cyclodextrin, and/or a bioactive agent, as an active component of cellular hydration. Fifty ±3 worms were transferred to each dish. Each condition was repeated in triplicate. Experiments were repeated for USA II and BP I waters described in Example 2.
• A. Addition of parent α-, β- and γ-cyclodextrins. • B. Addition of L-arginine and nicotinamide. • C. Addition of inclusion complexes of cyclodextrins with L-arginine and nicotinamide.

## OC[C@H]1O[C@@H]2O[C@H]3[C@H](O)[C@@H](O)[C@@H](O[C@H]4[C@H](O)[C@@H](O)[C@@H](O[C@H]5[C@H](O)[C@@H](O)[C@@H](O[C@H]6[C@H](O)[C@@H](O)[C@@H](O[C@H]7[C@H](O)[C@@H](O)[C@@H](O[C@H]8[C@H](O)[C@@H](O)[C@@H](O[C@H]9[C@H](O)[C@@H](O)[C@@H](O[C@H]1[C@H](O)[C@H]2O)O[C@@H]9CO)O[C@@H]8CO)O[C@@H]7CO)O[C@@H]6CO)O[C@@H]5CO)O[C@@H]4CO)O[C@@H]3CO [Gamma Cyclodextrin, γ-cyclodextrin]
pH of test solutions; 0.05%
  pH: 6.82
pH of test solutions; 0.10%
  pH: 6.79
pH of test solutions; 1.00%
  pH: 6.87
pH of test solutions; 2.00%
  pH: 6.77
[1]; Tap water, 0.05%
  Density (at 22 C.): 0.9997 ± 0.0007 g/cm³
[1]; Tap water, 0.10%
  Density (at 22 C.): 1.0002 ± 0.0004 g/cm³
[1]; Tap water, 1.00%
  Density (at 22 C.): 1.0035 ± 0.0007 g/cm³
[1]; Tap water, 2.00%
  Density (at 22 C.): 1.0094 ± 0.0006 g/cm³
[1]; purified water, 0.05%
  Density (at 22 C.): 0.995 ± 0.001 g/cm³
[2]
  Viscosity (25 C.): 0.97 cP
[3]; 1.00%
  Turbidity (Abs, λ = 410 nm): 0.065 Abs
[3]; 2.00%
  Turbidity (Abs, λ = 410 nm): 0.108 Abs
[4]; 0.05%
  Surface Tension: 72 mN · m^−1
[4]; 0.10%
  Surface Tension: 72 mN · m^−1
[4]; 1.00%
  Surface Tension: 73 mN · m^−1
[4]; 2.00%
  Surface Tension: 73 mN · m^−1
[5]; 0.05%
  Conductivity: 25.0 μS · cm^−1
[5]; 0.10%
  Conductivity: 25.0 μS · cm^−1
[5]; 1.00%
  Conductivity: 27.0 μS · cm^−1
[5]; 2.00%
  Conductivity: 27.0 μS · cm^−1
[6]; 0.05%
  Visual Inspection: clear
[6]; 0.10%
  Visual Inspection: clear
[6]; 1.00%
  Visual Inspection: hazy
[6]; 2.00%
  Visual Inspection: hazy
C. elegans; after day 15, 0.1% w/w
  number of animals surviving to old ages: significantly increased
C. elegans; life span 10 days
  Animals alive, % of initial: 100 % of initial
C. elegans; life span 15 days
  Animals alive, % of initial: 13 % of initial
C. elegans; life span 18 days
  Animals alive, % of initial: 2 % of initial
